US9895324B2, “Halogenated diarylacetylenes and methods of treating cancer” (UNIVERSITY OF KENTUCKY RESEARCH FOUNDATION, priority 2014, dated 2018)
Entries after “also recorded” stand apart in the source; their conditions may differ. Read-outs that look alike come from different tables or passages of the source.

Tests used:
LS174T cells = experiment: Cell proliferation assay, LS174T colon cancer cells; format: cell-based
Description: Cell Proliferation Assay.
LS174T cells were grown in RPMI medium (Mediatech) supplemented with 5% fetal bovine serum and 1% penicillin/streptomycin. For cell proliferation assays, 3×10^4 cells/well growing in 12-well plates were treated with DMSO or inhibitors. The cell numbers and viability were analyzed by Vi-Cell Cell Viability Analyzer after 4 days. The IC50 values were calculated with GraphPad Prim 5.

MAT2 = MAT2 (Homo sapiens, UniProt P31153); experiment: MAT2A inhibition assay; format: biochemical; conditions: compared with stilbene 1
MAT2, sequence (P31153 whole entry): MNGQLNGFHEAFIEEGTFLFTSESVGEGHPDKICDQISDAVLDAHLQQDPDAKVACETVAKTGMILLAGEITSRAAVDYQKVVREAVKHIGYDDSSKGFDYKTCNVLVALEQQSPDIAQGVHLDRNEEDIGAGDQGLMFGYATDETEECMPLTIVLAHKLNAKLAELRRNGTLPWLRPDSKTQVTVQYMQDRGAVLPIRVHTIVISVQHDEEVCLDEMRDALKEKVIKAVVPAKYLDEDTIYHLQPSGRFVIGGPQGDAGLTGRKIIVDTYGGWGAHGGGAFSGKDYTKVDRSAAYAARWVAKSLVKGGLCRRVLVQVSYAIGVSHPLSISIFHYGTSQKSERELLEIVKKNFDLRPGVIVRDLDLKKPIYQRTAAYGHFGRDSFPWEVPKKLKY
Description: We reported previously that stilbenes repressed colon cancer cell proliferation by inhibiting c-myc expression and inducing the cell cycle inhibitor, p21(Wif1/Cip1). See Zhang et al. J Med Chem 2011: 54:1288-1297. The similarity of the diarylacetylenes to the stilbenes also prompted an in silico modeling study of the binding of (E)-4-(2′,6′-difluorostyryl)-N,N-dimethylaniline (1) and 4((2,6-difluorophenyl)ethynyl)-N,N-dimethylaniline (2m). It was believed that para-oriented amino-substituents, such as the N-methylamino and N,N-dimethylamino groups, were associated with potent MAT2A inhibition. […] Variability in the MAT2A inhibition assay made the measurement of c-myc inhibition a preferred analytical tool for assessing the potency of diarylacetylenes.

[1] = target: catalytic subunit of methionine S-adenosyltransferase-2 (MAT-2) (Homo sapiens, UniProt P31153); conditions: cited from earlier work
catalytic subunit of methionine S-adenosyltransferase-2 (MAT-2), sequence (P31153 whole entry): as above

[2] = Homo sapiens, LS174T, 96 h, 4 days, read-out: Inhibition of LS174T Cell Proliferation IC50
[3] = 4 days, read-out: Inhibition of LS174T Cell Proliferation IC50

## CN(C)c1ccc(C#Cc2ccc(F)cc2F)cc1 [Compound 2i, 4-((2,4-Difluorophenyl)ethynyl)-N,N-dimethylaniline]
LS174T cells; [2]
  IC50: 56 ± 8.1 nM
other
  melting point: 116 to 118 °C

## CNc1ccc(C#Cc2c(F)cccc2F)cc1 [Compound 2b, 4-((2,6-Difluorophenyl)ethynyl)-N-methylaniline]
other
  melting point: 69 to 70 °C

## CN(C)c1ccc(C#Cc2c(F)cccc2Cl)cc1 [Compound 2n, 4-((2-Chloro-6-fluorophenyl)ethynyl)-N,N-dimethylaniline]
other
  melting point: 86 to 88 °C

## CN(C)c1ccc(C#Cc2ccccc2Cl)cc1 [Compound 2e, 4-((2-Chlorophenyl)ethynyl)-N,N-dimethylaniline]
LS174T cells; [3]
  IC50: 31 ± 3.1 nM
LS174T cells; [2]
  IC50: < 50 nM
other
  melting point: 108 to 110 °C

## CN(C)c1ccc(C#Cc2ccccc2)cc1 [Compound 2c, N,N-Dimethyl-4-(phenylethynyl)aniline]
LS174T cells
  Potency as inhibitor of LS174T cell proliferation (in words): very low potency
LS174T cells; [2]
  IC50: > 3000 nM
other
  melting point: 104 to 106 °C

## CN(C)c1ccc(C#Cc2ccccc2F)cc1 [Compound 2d, 4-((2-Fluorophenyl)ethynyl)-N,N-dimethylaniline]
LS174T cells; [3]
  IC50: 39 ± 6 nM
LS174T cells; [2]
  IC50: < 50 nM
other
  melting point: 94 to 96 °C

## Nc1ccc(C#Cc2c(F)cccc2F)cc1 [Compound 2a, 4-((2,6-Difluorophenyl)ethynyl)aniline]
LS174T cells; [2]
  IC50: 55 ± 7.8 nM
LS174T cells; Homo sapiens, LS174T, read-out: IC50 (inhibition of LS174T cell proliferation)
  IC50: 55 ± 7.8 nM
other
  melting point: 104 to 105 °C

## CN(C)c1ccc(C#Cc2cccc(F)c2F)cc1 [Compound 2h, 4-((2,3-Difluorophenyl)ethynyl)-N,N-dimethylaniline]
LS174T cells; [2]
  IC50: 119 ± 4.6 nM
other
  melting point: 104 to 106 °C

## CN(C)c1ccc(C#Cc2cccc(F)c2)cc1 [Compound 2f, 4-((3-Fluorophenyl)ethynyl)-N,N-dimethylaniline]
LS174T cells
  Potency as inhibitor of LS174T cell proliferation (in words): significantly less active
LS174T cells; [2]
  IC50: > 3000 nM
other
  melting point: 99 to 100 °C

## CN(C)c1ccc(C#Cc2ccc(F)c(F)c2)cc1 [Compound 2j, 4-((3,4-Difluorophenyl)ethynyl)-N,N-dimethylaniline]
LS174T cells
  Potency as inhibitor of LS174T cell proliferation (in words): significantly less active
LS174T cells; [2]
  IC50: > 3000 nM
other
  melting point: 100 to 101 °C

## CN(C)c1ccc(C#Cc2c(Cl)cccc2Cl)cc1 [Compound 2o, 4-((2,6-Dichlorophenyl)ethynyl)-N,N-dimethylaniline]
LS174T cells; [2]
  IC50: 52 ± 7.1 nM
other
  melting point: 96 to 98 °C

## CN(C)c1ccc(C#Cc2cc(F)ccc2F)cc1 [Compound 2l, 4-((2,5-Difluorophenyl)ethynyl)-N,N-dimethylaniline]
LS174T cells; [2]
  IC50: 55 ± 6 nM
other
  melting point: 106 to 107 °C

## CN(C)c1ccc(C#Cc2cc(F)cc(F)c2)cc1 [Compound 2k, 4-((3,5-Difluorophenyl)ethynyl)-N,N-dimethylaniline]
LS174T cells
  Potency as inhibitor of LS174T cell proliferation (in words): significantly less active
LS174T cells; [2]
  IC50: > 3000 nM
other
  melting point: 72 to 74 °C

## CN(C)c1ccc(C#Cc2c(F)cccc2F)cc1 [Compound 2m, 4-((2,6-Difluorophenyl)ethynyl)-N,N-dimethylaniline]
MAT2
  MAT2 inhibition (in words, data not shown): inhibited MAT2 at concentrations comparable to that of the stilbene 1

## CN(C)c1ccc(/C=C/c2c(F)cccc2F)cc1 [Compound 1, (E)-4-(2′,6′-difluorostyryl)-N,N-dimethylaniline, reference compound]
[1]
  Molecular target: targeted exclusively the catalytic subunit of methionine S-adenosyltransferase-2 (MAT-2)
LS174T cells; [2]
  IC50: 59 ± 7.5 nM

## CN(C)c1ccc(C#Cc2ccc(F)cc2)cc1 [Compound 2g, 4-((4-Fluorophenyl)ethynyl)-N,N-dimethylaniline]
LS174T cells
  Potency as inhibitor of LS174T cell proliferation (in words): very low potency; also recorded: significantly less active
LS174T cells; [2]
  IC50: > 3000 nM
other
  melting point: 132 to 134 °C
